Experimental data reported in patent KR20200071421A, “왕귀뚜라미에서 유래한 항균 펩타이드 테레오그릴루신 3 및 그의 조성물” (대한민국(농촌진흥청장), priority 2018, dated 2020).
Peptide text beside a SMILES is read from it.

Tested on: rat erythrocytes
Assay: Cytotoxicity to rat erythrocytes (hemolysis, absorbance 550 nm)
Format: cell-based
Details: for % 렛 적혈구 파괴능: 37 ℃, 30 min, 0.1 % Triton X-100 = 100 %

Row | Compound | % 렛 적혈구 파괴능 (12.5 ㎍/ml peptide) [%] | % 렛 적혈구 파괴능 (25 ㎍/ml peptide) [%] | % 렛 적혈구 파괴능 (50 ㎍/ml peptide) [%] | % 렛 적혈구 파괴능 (100 ㎍/ml peptide) [%] | % 렛 적혈구 파괴능 (200 ㎍/ml peptide) [%] | erythrocyte lysis, result in words (concentrations up to 200 ㎍/ml) | cytotoxicity to erythrocytes, result in words (even at low concentrations)
1 | CC[C@H](C)[C@H](NC(=O)[C@H](Cc1ccccc1)NC(=O)[C@H](Cc1ccccc1)NC(=O)[C@H](CC(C)C)NC(=O)[C@H](CCCCN)NC(=O)[C@H](CC(N)=O)NC(=O)[C@H](CCCCN)NC(=O)[C@H](Cc1c[nH]c2ccccc12)NC(=O)[C@H](Cc1ccccc1)NC(=O)[C@@H](N)CCSC)C(=O)N[C@H](C(=O)N[C@@H](CCCCN)C(=O)N[C@@H](CCCCN)C(N)=O)C(C)C [Teleogryllusine 3, MFWKNKLFFIVKK-NH2] (H-MFWKNKLFFIVKK-NH2) | 0 | 0.09 | 0.28 | 0 | 1.22 | 파괴능이 미미함 | –
2 | CC[C@H](C)[C@H](NC(=O)CN)C(=O)NCC(=O)N[C@@H](C)C(=O)N[C@H](C(=O)N[C@@H](CC(C)C)C(=O)N[C@@H](CCCCN)C(=O)N[C@H](C(=O)N[C@@H](CC(C)C)C(=O)N[C@H](C(=O)N[C@H](C(=O)NCC(=O)N[C@@H](CC(C)C)C(=O)N1CCC[C@H]1C(=O)N[C@@H](C)C(=O)N[C@@H](CC(C)C)C(=O)N[C@H](C(=O)N[C@@H](CO)C(=O)N[C@@H](Cc1c[nH]c2ccccc12)C(=O)N[C@H](C(=O)N[C@@H](CCCCN)C(=O)N[C@@H](CCCNC(=N)N)C(=O)N[C@@H](CCCCN)C(=O)N[C@@H](CCCNC(=N)N)C(=O)N[C@@H](CCC(N)=O)C(=O)N[C@@H](CCC(N)=O)C(N)=O)[C@@H](C)CC)[C@@H](C)CC)[C@@H](C)O)[C@@H](C)O)C(C)C)C(C)C [멜리틴] | 75.8 | 83.1 | 89.8 | 88.3 | 91.4 | – | 높은 세포 독성
